# Source: ChEMBL document CHEMBL1151823, “5-Bromo-8-methoxy-1-methyl-beta-carboline, an alkaloid from the New Zealand marine bryozoan Pterocella vesiculosa” (J Nat Prod, 2009)
# Key:
# [1] = tested on: Trichophyton mentagrophytes; experiment: Antimicrobial activity against Trichophyton mentagrophytes measured per disk; assay type: functional
# Candida albicans = experiment: Antimicrobial activity against Candida albicans measured per disk; assay type: functional
# P388 = experiment: Cytotoxicity against mouse P388 cells; assay type: functional, cell-based
# Bacillus subtilis = experiment: Antimicrobial activity against Bacillus subtilis measured per disk; assay type: functional
Structure (SMILES),MID [1] [µg/mL],MID (Candida albicans) [µg/mL],IC50 (P388) [µg/mL],MID (Bacillus subtilis) [µg/mL]
C=Cc1nccc2c1[nH]c1c(OC)cccc12,0.45,15,0.1,7.5
CCc1nccc2c1[nH]c1ccccc12,1.9,1.9,> 12.5,7.5
Cc1nccc2c1[nH]c1ccccc12 [HARMAN],3.7,1.9,> 12.5,7.5
CCc1nccc2c1[nH]c1c(OC)cccc12,7.5,7.5,> 12.5,>60
C=Cc1nccc2c1[nH]c1c(O)cccc12,0.45,15,0.1,7.5
C=Cc1nccc2c1[nH]c1c(OC(C)=O)cccc12,–,–,0.65,–
CCc1nccc2c1[nH]c1c(O)cccc12,30,30,> 12.5,30
C=Cc1[nH]ccc2c3ccccc3nc1-2,0.1,1.9,0.1,1.9
COc1ccc(Br)c2c1[nH]c1c(C)nccc12,7.5,7.5,5.09,2
